From patent US9687431B2, “Use of isoleucine N-hexadecanoyl as a “volumizing” and/or “plumping” agent for human skin” (SOCIETE D'EXPLOITATION DE PRODUITS POUR LES INDUSTRIES …, priority 2009, dated 2017)
Marks after values point to notes of the source that are not given here.

Legend:
Format in all cases: cell-based
[1] = system: normal human preadipocytes; test: Differentiation of normal human preadipocytes in depleted differentiation medium (Bodipy lipid droplet labeling, image analysis); conditions: 15 days
Protocol: Normal human preadipocytes resulting from abdominal surgical waste from a donor were cultured in monolayer until confluence in the presence of a culture medium comprising PBM-2 (Preadipocyte Basal Medium-2) supplied by the company Lonza, an amount of 10% by volume of FBS (Fetal Bovine Serum) for 100% of the volume of the culture medium, L-glutamine and gentamicin.
Their differentiation into adipocytes was induced by adding a “depleted” differentiation medium comprising a mixture of insulin, dexamethasone, IBMX (isobutyl methyl xanthine) and indomethacin, and used at a dilution rate of 1/10th with respect to a “standard” differentiation medium.
A differentiation phase is also carried out on human preadipocytes as described above and cultured in monolayers as described above, but in the presence of a “standard” differentiation medium, namely a nondiluted mixture of insulin, dexamethasone, IBMX (IsoButyl Methyl Xanthine) and indomethacin, so as to obtain a “control differentiated in standard medium”.
Once the maturity of the preadipocytes was reached, namely after 15 days following the induction described above, the cultures were rinsed with a PBS (Phosphate Buffered Saline) buffer and the intracytoplasmic lipid vesicles were labeled using a specific viable fluorescent probe, Bodipy (500 μg/ml). The nuclei of the differentiated preadipocytes were also labeled using a Hoechst reagent (bisbenzimide), which is also fluorescent, at a concentration of 2 μg/ml, sold by the company Sigma.
Three photographs per well were taken using a Zeiss Axiovert™ 25 inverted epifluorescence microscope fitted with an ×20 objective.
For each test of products tested, including controls, the images obtained with the inverted epifluorescence microscope are analyzed using the Lucia software, allowing quantification of the Bodipy fluorescent label, in order to carry out: • a measurement of the lipid droplet surface area (Sd), • a measurement of the number of differentiated cells (Nc), and • a measurement of the number of total cell nuclei (Nnc).
For each test, the level of adipocyte differentiation (D) is then calculated by relating the lipid droplet surface area to the number of total nuclei according to the following formula: (D)=(lipid droplet surface area)/(number of total cell nuclei).
The following will thus be calculated: • the level of adipocyte differentiation of the control differentiated in depleted medium (subsequently denoted Ddm); • the level of adipocyte differentiation of the control differentiated in standard or complete medium (subsequently denoted Dcm); • the level of adipocyte differentiation of the products tested (N-hexadecanoyl isoleucine, hexadecanoic acid, isoleucine, hexadecanoic acid/isoleucine mixture in a ratio by weight of 65/35) (subsequently denoted Dpt).
For each product tested, the following are then calculated:
a) the percentage restoration of adipocyte differentiation (subsequently denoted RAD) according to the following formula: RAD=[(Dpt−Ddm)/(Dcm−Ddm)]×100
b) the adipocyte surface area (AS) according to the following formula: (AS)=[(lipid droplet surface area Sd)/(number of differentiated cells Nc)]×100
c) the percentage increase in adipocyte surface area (subsequently denoted IAS) relative to the control treated with depleted medium according to the formula: IAS=[adipocyte surface area of the product (ASpt)/adipocyte surface area of the control treated with the depleted medium (ASdm)]×100.
A statistical analysis is then carried out on the data (D) and (AS) using a two-sided Student's test assuming unequal variances. Thus, the population of each of the experimental conditions tested for the parameters (D) and (AS) is compared with the population of the condition of differentiation in the presence of the depleted differentiation medium. An error threshold (p) is set at 5%.

[2] = system: human preadipocytes of passage R7; test: Adipocyte phenotype restoration in artificially aged (passage R7) preadipocytes, protocol 1 (Oil-Red-O, OD 540 nm); conditions: protocol 1: product present during differentiation; 10 μg/ml on a dry extract basis
Source text: (§1) The term “passage” or “subculturing” or “amplification” denotes here the operation, known to those skilled in the art, consisting in amplifying the cells in question successively by means of culture cycles. Thus, the term “preadipocytes of passage RO” denotes the preadipocytes which have undergone no passage operation as defined above. The term “preadipocytes of passage R1” denotes the preadipocytes which have undergone a single passage operation as defined above. The term “preadipocytes of passage R7” denotes the preadipocytes which have undergone 7 successive passage operations under identical operating conditions.
(§2) • i) Human preadipocytes of passage R1 were cultured in monolayer for 5 days until confluence. […]
The optical density thus measured for the young control is denoted “ODR1”. […]

[3] = system: human preadipocytes of passage R7; test: Adipocyte phenotype restoration in artificially aged (passage R7) preadipocytes, protocol 2; conditions: protocol 2: product present during 5-day culture until confluence; 10 μg/ml on a dry extract basis
Source text: as §1, §2
The steps of sections a) and b) of protocol 1 are carried out using human preadipocytes of passage R1 and human preadipocytes of passage R7 so as to obtain a “young” control and an “aged” control and the associated optical densities ODR1 and ODR7. The effect of the N-hexadecanoyl isoleucine on human preadipocytes of passage R7 is evaluated according to a variant of the procedure of protocol 1, the first step of which consists in culturing the human preadipocytes of passage R7 in a monolayer for 5 days until confluence in the presence of N-hexadecanoyl isoleucine. […]

[4] = system: human preadipocytes of passage R7; test: Adipocyte phenotype restoration in artificially aged (passage R7) preadipocytes, protocol 3; conditions: protocol 3: product present during culture and differentiation; 10 μg/ml on a dry extract basis
Source text: as §1, §2
The effect of the N-hexadecanoyl isoleucine on human preadipocytes of passage R7 is evaluated according to a variant of the procedure of protocol 2, the first step of which consists in culturing the human preadipocytes of passage R7 in a monolayer for 5 days until confluence in the presence of N-hexadecanoyl isoleucine. […]

[5] = 1.7 μg/ml on a dry extract basis

Compound | IAS (percentage increase in adipocyte surface area relative to control in depleted medium = 100%) ([1]; 3.3 μg/ml) | RAD (percentage restoration of adipocyte differentiation) ([1]; 3.3 μg/ml) | IAS (percentage increase in adipocyte surface area relative to control in depleted medium = 100%) ([1]; 6.5 μg/ml) | RAD (percentage restoration of adipocyte differentiation) ([1]; 6.5 μg/ml) | IAS (percentage increase in adipocyte surface area relative to control in depleted medium = 100%) [1, 5] | RAD (percentage restoration of adipocyte differentiation) [1, 5] | PRR (phenotype restoration rate) [2] | PRR (phenotype restoration rate) [3] | PRR (phenotype restoration rate) [4]
CCCCCCCCCCCCCCCC(=O)O [Hexadecanoic acid, hexadecanoic acid] | 41%* | <10% | 62% | <10% |  |  |  |  | 
CC[C@H](C)[C@H](N)C(=O)O [Isoleucine, isoleucine] | 117% | <10% |  |  | 57% | <10% |  |  | 
CCCCCCCCCCCCCCCC(=O)N[C@H](C(=O)O)[C@@H](C)CC [N-hexadecanoyl isoleucine] |  |  |  |  |  |  | 16%* | 17%* | 30%*
